According to the supplement of paper PMC8988213:
Where a name gives a salt, the structure may show the parent alone.

Legend:
[1] = tested on: ID188 patient-derived PDAC 2D line (pre-FOLFIRINOX); test: normalised area under dose-response curve (viability relative to DMSO, 7 doses up to 10 µM) (fraction (AUC)); higher = less sensitive (more viability retained); conditions: 72 h; top dose: 10 µM
Experimental: (§1)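 Patient-derived 2D PDAC cells (ID188 pre-FOLFIRINOX, passage 5+27; ID211 post-FOLFIRINOX, passage 9+11), 1,500-3,000 cells/well in 96-well plates, were treated with a 415-compound Selleck library in seven concentrations (3-fold dilution series, top 10 µM) for 72 h. Viability was read by CellTiter-Glo ATP luminescence, normalised to the DMSO control, and the area under the dose-response curve was computed with the GRmetrics R package; a lower AUC means higher sensitivity.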

[2] = tested on: ID211 patient-derived PDAC 2D line (post-FOLFIRINOX); test: as above; conditions: 72 h; top dose: 10 µM
Experimental: as §1

SMILES	normalised area under dose-response curve [1]	normalised area under dose-response curve [2]
Cc1ccc(NC(=O)c2cccc(C(C)(C)C#N)c2)cc1Nc1ccc2ncn(C)c(=O)c2c1 [AZ 628]	0.898	0.634
N[C@@H]1CCCN(c2c(/C=C3\SC(=O)NC3=O)cccc2-c2ccccc2)C1 [AZD1208]	0.958	0.841
Cc1cc(Nc2nc(N[C@@H](C)c3ncc(F)cn3)ncc2Cl)[nH]n1 [AZD1480]	0.952	0.766
Cc1[nH]nc(C(F)(F)F)c1Cc1sc2c(c1C(=O)N1C[C@](C)(O)CO1)c(=O)n(C)c(=O)n2C(C)C [AZD3965]	0.937	0.89
COc1cc(CCc2cc(NC(=O)c3ccc(N4CC(C)NC(C)C4)cc3)n[nH]2)cc(OC)c1 (stereo not given) [AZD4547]	0.998	0.829
COc1nnc2ccc(N3CCC(c4ccc(OCCN5CCN(C)C(=O)[C@H]5C)cc4)CC3)nn12 [AZD5153]	0.723	0.59
Cc1cc([C@@H](C)Nc2ccccc2C(=O)O)c2nc(N3CCOCC3)cc(=O)n2c1 [AZD6482]	0.862	0.835
C[C@@H]1COCCN1c1cc(C2([S@](C)(=N)=O)CC2)nc(-c2cc[nH]c3nccc2-3)n1 [AZD6738]	0.805	0.749
NC(=O)Nc1cc(-c2cccc(F)c2)sc1C(=O)N[C@H]1CCCNC1 [AZD7762]	0.558	0.507
C=CCn1c(=O)c2cnc(Nc3ccc(N4CCN(C)CC4)cc3)nc2n1-c1cccc(C(C)(C)O)n1 [Adavosertib(MK-1775)]	0.582	0.662
CN(C)C/C=C/C(=O)Nc1cc2c(Nc3ccc(F)c(Cl)c3)ncnc2cc1O[C@H]1CCOC1 [Afatinib (BIBW2992) Dimaleate]	0.855	0.58
CCc1cc2c(cc1N1CCC(N3CCOCC3)CC1)C(C)(C)c1[nH]c3cc(C#N)ccc3c1C2=O [Alectinib hydrochloride]	0.779	0.789
COc1cc(Nc2ncc3c(n2)-c2ccc(Cl)cc2C(c2c(F)cccc2OC)=NC3)ccc1C(=O)O [Alisertib (MLN8237)]	0.799	0.88
O=c1[nH]cnc2[nH]ncc12 [Allopurinol Sodium]	0.951	0.843
Cn1c(=O)cc(N2CCC[C@@H](N)C2)n(Cc2ccccc2C#N)c1=O [Alogliptin]	0.952	0.817
Cc1nc(NC(=O)N2CCC[C@H]2C(N)=O)sc1-c1ccnc(C(C)(C)C(F)(F)F)c1 [Alpelisib (BYL719)]	0.892	0.696
CC(C)(C#N)c1cc(Cn2cncn2)cc(C(C)(C)C#N)c1 [Anastrozole]	0.939	0.799
COc1cc(OC)c2c(=O)[nH]c(-c3cc(C)c(OCCO)c(C)c3)nc2c1 [Apabetalone (RVX-208)]	0.949	0.837
Cc1c(CN2CCN(C(=O)[C@H](C)O)CC2)sc2c(N3CCOCC3)nc(-c3cnc(N)nc3)nc12 [Apitolisib (GDC-0980, RG7422)]	0.606	0.54
COc1cc(C(C)=O)ccc1O [Apocynin]	0.915	0.816

SMILES	normalised area under dose-response curve [1]	normalised area under dose-response curve [2]
O=C1C(=O)N(Cc2ccc(Cl)c(Cl)c2)c2ccccc21 [Apoptosis Activator 2]	0.952	0.969
CNC(=O)c1ccccc1Sc1ccc2c(/C=C/c3ccccn3)n[nH]c2c1 [Axitinib]	0.898	0.857
Nc1ncn([C@@H]2O[C@H](CO)[C@@H](O)[C@H]2O)c(=O)n1 [Azacitidine]	0.855	0.977
Nc1nccc(Oc2ccc3c(C(=O)Nc4cccc(C(F)(F)F)c4)cccc3c2)n1 [BAW2881 (NVP-BAW2881)]	0.885	0.961
Cc1ccc(S(=O)(=O)/C=C/C#N)cc1 [BAY 11-7082]	0.957	0.839
Cc1cc(-c2nc(-c3ccc(OC(F)(F)F)cc3)no2)nn1Cc1ccnc(N2CCN(C3CC3)CC2)c1 [BAY 87-2243]	0.574	0.794
COc1ccc(-c2cc3nccn3c(Nc3ncccc3C(N)=O)n2)cc1OC [BAY-61-3606]	0.871	0.79
Cc1c(NC(=O)c2cc(C(N)=O)nc3cc(F)ccc23)c(C(F)(F)F)nn1Cc1ccc(C#N)cc1 [BAY-876]	0.826	0.718
O=c1[nH]nc(Sc2ncc([N+](=O)[O-])s2)n1-c1ccc2c(c1)OCCO2 [BI-78D3]	0.965	0.811
CC(C)CCN1c2nc(Nc3cc(F)c(O)c(F)c3)ncc2N(C)C(=O)C1C (stereo not given) [BI-D1870]	0.925	0.876
CNC(=O)c1cc(Oc2ccc3nc(N[C@@H]4CCCC[C@H]4O)sc3c2)ccn1 [BLZ945]	0.905	0.914
COc1ccc2c(c1)c(CC(=O)N1CCOCC1)c(C)n2C(=O)c1ccc(Cl)cc1 [BML-190]	0.958	1.01
COc1nc(OCc2cccc(-c3ccccc3)c2C)ccc1CNCCNC(C)=O [BMS202 (PD-1PD-L1 inhibitor 2)]	0.99	0.905
O=C(Cc1ccccc1)Nc1nnc(CCSCCc2nnc(NC(=O)Cc3ccccc3)s2)s1 [BPTES]	0.861	0.854
Cc1nn(C)c2c1C(c1ccc(C(F)(F)F)cc1)C(C#N)=C(N)O2 (stereo not given) [BQU57]	0.933	0.869
COC(=O)c1ccc2c(c1)nc(NC(=O)c1ccccc1)n2CCCc1ccccc1 [BRD4770]	0.887	0.836
O=C(NCCCNc1nc(Nc2cccc(NC(=O)N3CCCC3)c2)ncc1I)c1cccs1 [BX-795]	0.885	0.883
O=C(Nc1cccc(Nc2ncc(Br)c(NCCc3cnc[nH]3)n2)c1)N1CCCC1 [BX-912]	0.595	0.893
Cc1ccc(NC(=O)c2ccc(CN3CC[C@H](N(C)C)C3)c(C(F)(F)F)c2)cc1Nc1nccc(-c2cncnc2)n1 [Bafetinib (INNO-406)]	0.906	0.841
CC[C@H](NC(=O)[C@H](C)NC)C(=O)N1C[C@@H](O)C[C@H]1Cc1c(-c2[nH]c3cc(F)ccc3c2C[C@@H]2C[C@H](O)CN2C(=O)[C@H](CC)NC(=O)[C@H](C)NC)[nH]c2cc(F)ccc12 [Birinapant]	0.315	1.02
